From patent US12435087B2, “Modulators of DCN-1 and methods of use thereof” (Cellarity, Inc., priority 2023, dated 2025) come the findings set out here.

Like-named read-outs stand apart in the source and are kept apart here. Some results are limits rather than exact numbers.

In one experiment the target is DCN1 protein (Homo sapiens (Human), UniProt Q96GG9). The experiment in a line: Intact protein MS analysis with the RapidFire-TOF system (covalent adduct formation). It counts as binding. Conditions: 400 nM DCN1, incubated at room temperature for 3 hours. How it is done:
(§1) DCN1 protein, His-TEV-DCN1, were expressed in E. Coli. The His-tagged protein was first purified with an Ni-NTA column. The His-tag was cleaved using His-tag TEV protease and the His-tags were removed using a second Ni-NTA column. Protein purity was verified with SDS-PAGE and intact MS. DCN1 was dissolved in a buffer containing 25 mM Tris-HCl, 200 mM NaCl, and 1 mM DTT at 400 nM. 11 concentrations of compounds were added to the DCN1 solution and incubated at room temperature for 3 hours, unless otherwise specified. The reaction plates were quenched by adding 0.2% formic acid. Quenched assay plates were analyzed with an Agilent RapidFire 360 system connected to an Agilent 6545 Q-TOF mass spectrometer equipped with an AJS source. 10 μL of sample volume was loaded onto a custom packed cartridge (4 μL, PLRP-S 30 μm/1000 Å pore; Optimize Technologies) with loading buffer (ddH2O with 0.09% (vol/vol) formic acid and 0.01% (vol/vol) trifluoroacetic acid; 1.25 ml/min) for 6 seconds before being eluted directly into the mass spectrometer in elution buffer (80% acetonitrile with 0.09% (vol/vol) formic acid and 0.01% (vol/vol) trifluoroacetic acid; 0.5 ml/min) for 7 seconds. The cartridge was re-equilibrated with loading buffer for 1 second before collection of the next sample. The Q-TOF was operated in TOF-only positive ionization mode set to the following parameters: Gas Temp=350 C, Drying Gas=7 l/min, Nebulizer=50 psi, Sheath Gas Temp=400 C, Sheath Gas Flow=12 l/min, VCap=4000 V, Nozzle Voltage=1000 V, Fragmentor=125 V, Skimmer=65 V and Oct 1 RF Vpp=750V. Raw MS data files were deconvoluted and analyzed using the Agilent MassHunter Bioconfirm software package to identify both parent protein and expected compound adduct mass signatures.
An MS assay was performed to evaluate the ability of the compounds to covalently modify DCN-1.
as §1, with “Vcap=4000” for “VCap=4000”

Experiment [1] deals with DCN1 (DCUND1) protein PONY domain (Homo sapiens (Human), UniProt Q96GG9). The experiment in a line: TR-FRET assay (binding to DCN-1, displacement of FAM-labeled probe). An outline of the steps: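 Compounds read at 1, 5 and 24 h, 0.1% final DMSO, by TR-FRET between terbium-streptavidin on biotinylated DCN1 PONY domain (E. coli) and a FAM-tagged non-covalent inhibitor probe. Two setups used, 5 nM protein with 20 nM labelled probe, or 0.31 nM protein with 100 nM labelled plus 800 nM unlabelled probe; buffer had TritonX and 200 mM NaCl. % activity relative to high (with probe) and low (without probe) controls.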
On the technique in general: TR-FRET usually uses a lanthanide donor and a delayed reading to cut background.

[2] abbreviates: 24 hr after treatment with compound, read-out: TR FRET IC50 24 hr.
[3] abbreviates: TR FRET IC50 1 hr (nM), 1 hr after treatment with compound.
Setting [4] is: read-out: TR FRET IC50 1 hr, 1 hr after treatment with compound.

DCN1 (DCUND1) protein PONY domain, sequence (Q96GG9 60-248): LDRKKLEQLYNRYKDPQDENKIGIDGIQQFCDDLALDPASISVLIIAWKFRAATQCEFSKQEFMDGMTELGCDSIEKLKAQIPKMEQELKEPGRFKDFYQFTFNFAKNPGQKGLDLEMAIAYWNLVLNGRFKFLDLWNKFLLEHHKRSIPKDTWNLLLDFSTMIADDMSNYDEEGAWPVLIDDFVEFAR
DCN1 protein, sequence (Q96GG9 whole entry): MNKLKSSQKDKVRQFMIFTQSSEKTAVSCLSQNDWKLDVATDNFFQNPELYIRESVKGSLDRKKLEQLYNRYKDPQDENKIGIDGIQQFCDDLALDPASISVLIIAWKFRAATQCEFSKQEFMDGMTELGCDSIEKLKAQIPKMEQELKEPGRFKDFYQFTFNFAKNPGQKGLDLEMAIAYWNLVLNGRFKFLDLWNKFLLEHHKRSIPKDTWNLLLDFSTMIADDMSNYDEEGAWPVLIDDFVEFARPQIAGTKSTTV

Consider `C=CC(=O)Nc1cccc([C@H]2c3c(C)nn(-c4ccccc4)c3N(CC)C(=O)[C@H]2NC(=O)c2cccc(C(F)(F)F)c2)c1` (racemic) [Compound I-25], for which, on DCN1 protein, the maximum response (Emax) lay within 0 to 30%. Besides, the IC50 in experiment [1] (setting [2]) and in experiment [1] (setting [3]) was > 3000 nM each time.

The compound `CCN1C(=O)[C@@H](NC(=O)c2cccc(C(F)(F)F)c2)[C@@H](c2cccc(NC(=O)/C=C/C(F)(F)F)c2)c2c(C)nn(-c3ccccc3)c21` (racemic) [Compound I-27] gave an Emax on DCN1 protein of 0 to 30%. Also, the IC50 in experiment [1] (setting [2]) and in experiment [1] (setting [3]) was > 3000 nM throughout.

The compound `CCN1C(=O)[C@H](NC(=O)c2cccc(C(F)(F)F)c2)[C@@H](c2cccc(N3CC=CC3=O)c2)c2c(C)nn(-c3ccccc3)c21` (racemic) [Compound I-28, rac-N-((4R,5S)-7-ethyl-3-methyl-6-oxo-4-(3-(2-oxo-2,5-dihydro-1H-pyrrol-1-yl)phenyl)-1-phenyl-4,5,6,7-tetrahydro-1H-pyrazolo[3,4-b]pyridin-5-yl)-3-(trifluoromethyl)benzamide] displayed an Emax on DCN1 protein of 80 to 100%. Also, the IC50 in experiment [1] (setting [2]) and in experiment [1] (setting [3]) was 1000 to 3000 nM in each case.

`CCN1C(=O)[C@H](NC(=O)c2cccc(C(F)(F)F)c2)[C@@H](c2cccc(NC(=O)/C=C/CN(C)C)c2)c2c(C)nn(-c3ccccc3)c21` (racemic) [Compound I-38]: the Emax on DCN1 protein was 80 to 100%. Besides, in experiment [1] (setting [3]), the half-maximal inhibitory concentration (IC50) was in the range of 1000 to 3000 nM.

At DCN1 protein, `CCN1C(=O)[C@H](NC(=O)c2cccc(C(F)(F)F)c2)[C@@H](c2cccc(NC(=O)/C(C#N)=C/C(C)C)c2)c2c(C)nn(-c3ccccc3)c21` (racemic) [Compound I-46, rac-N-((4R,5S)-4-(3-((E)-2-cyano-4-methylpent-2-enamido)phenyl)-7-ethyl-3-methyl-6-oxo-1-phenyl-4,5,6,7-tetrahydro-1H-pyrazolo[3,4-b]pyridin-5-yl)-3-(trifluoromethyl)benzamide] showed an Emax of 80 to 100%. Further, the half-inhibitory concentration (IC50) in experiment [1] (setting [2]) and in experiment [1] (setting [3]) was ≤ 200 nM throughout.

As for `CCN1C(=O)[C@H](NC(=O)c2cccc(C(F)(F)F)c2)[C@@H](c2cccc(NC(=O)/C=C/CN3CCOCC3)c2)c2c(C)nn(-c3ccccc3)c21` (racemic) [Compound I-47], the Emax at DCN1 protein lay in the range of 0 to 30%. In addition, the IC50 in experiment [1] (setting [2]) is 1000 to 3000 nM; in experiment [1] (setting [4]), > 3000 nM.

`C=C(CN1CCC(F)(F)C1)C(=O)Nc1cccc([C@@H]2c3c(C)nn(-c4ccccc4)c3N(CC)C(=O)[C@H]2NC(=O)c2cccc(C(F)(F)F)c2)c1` (racemic) [Compound I-60]: the maximal effect (Emax) on DCN1 protein lay in the range of 80 to 100%. The IC50 in experiment [1] (setting [2]) and in experiment [1] (setting [4]) was ≤ 200 nM in each case.

For the compound `C=C(CN1CC2(COC2)C1)C(=O)Nc1cccc([C@@H]2c3c(C)nn(-c4ccccc4)c3N(CC)C(=O)[C@H]2NC(=O)c2cccc(C(F)(F)F)c2)c1` (racemic) [Compound I-64], at DCN1 protein, the maximal effect (Emax) lay in the range of 80 to 100%. The 50% inhibitory concentration (IC50) in experiment [1] (setting [2]) and in experiment [1] (setting [4]) was ≤ 200 nM each time.

At DCN1 protein, `C=C(CN1CCOCC1)C(=O)Nc1cccc([C@H]2c3c(C)nn(-c4ccccc4)c3N(CC)C(=O)[C@@H]2NC(=O)c2ccn(C(F)(F)F)n2)c1` (racemic) [Compound I-65] showed an Emax of 80 to 100%. The IC50 in experiment [1] (setting [2]) and in experiment [1] (setting [4]) was ≤ 200 nM in each case.

Turning to `CCN1C(=O)[C@H](NC(=O)c2cccc(C(F)(F)F)c2)[C@@H](c2cccc(NC(=O)/C(C#N)=C/C3CC3)c2)c2c(C)nn(-c3ccccc3)c21` (racemic) [Compound I-68, rac-N-((4R,5S)-4-(3-((E)-2-cyano-3-cyclopropylacrylamido)phenyl)-7-ethyl-3-methyl-6-oxo-1-phenyl-4,5,6,7-tetrahydro-1H-pyrazolo[3,4-b]pyridin-5-yl)-3-(trifluoromethyl)benzamide], the Emax at DCN1 protein fell in the range of 80 to 100%. The half-inhibitory concentration (IC50) in experiment [1] (setting [2]) is 200 to 1000 nM; in experiment [1] (setting [3]) it was ≤ 200 nM.

A word on the Emax: it is the maximal effect, on the per cent scale that the assay sets. What is called IC50 is the concentration that gives 50% inhibition.
